Laboratory results taken from patent publication US11365204B2, “Substituted dihydrothienopyrimidines and their use as phosphodiesterase inhibitors” (UNION therapeutics A/S, priority 2017, dated 2022).

Columns and labels:
[1] = target: human PDE4D catalytic domain (UniProt no. Q08499 [S380-L740]) (Homo sapiens (Human), UniProt Q08499); test: PDE4 assay (TR-FRET, cAMP hydrolysis); type: biochemical; conditions: read-out: PDE4 IC50 range
Experimental: The human PDE4D catalytic domain (UniProt no. Q08499 [S380-L740]) was incubated with a mixture of non-labelled cAMP (cyclic adenosine monophosphate) and fluorescein amidite (FAM) conjugated cAMP and titrated test or reference compound.
Following brief incubation the enzymatic reaction was stopped by addition of binding buffer containing nanoparticles with immobilized trivalent metal ions capable of binding 1) AMP phospho groups and 2) terbium (Tb) donor fluorophores. Subsequent excitation of the Tb donor triggered time-resolved FRET to adjacent FAM acceptor molecules resulting in light emission. In the presence of a PDE4 inhibitor, AMP generation was reduced resulting in a lower fluorescence signal. The cAMP phosphodiester is not bound by the detection system.
Results were expressed as IC50 values (nM) calculated from inhibition curves where the TR-FRET signal was normalized to Tb fluorescence intensity and the negative (DMSO vehicle) and positive (10 microM a PDE4 inhibitor reference compound) controls.

[2] = system: Human peripheral blood mononuclear cells (PBMC); test: TNF-α release from LPS-stimulated PBMC; type: cell-based; conditions: Lipopolysaccharide 1 microg/ml, 18 hours, AlphaLISA, read-out: TNF-α IC50 range
Experimental: Human peripheral blood mononuclear cells (PBMC) were isolated from fresh buffy coats by density centrifugation using lymphoprep tubes (Medinor). Frozen PBMC's were washed in serum free assay buffer (RPMI1640 with 25 mM HEPES, 1% pen/strep, […] L glutamine, 0.5% human serum albumin) and living cells counted. Lipopolysaccharide (1 microg/ml; SIGMA) was added to the cells which were then transferred to 384 well tissue culture plates ([…]) containing titrated test compounds. The cells were incubated for 18 hours at 37° C. in serum free assay buffer and the level of TNFalpha in the supernatant was quantitated by AlphaLISA (PerkinElmer) by measuring fluorescence intensity at 615 nm.
Results were expressed as IC50 values calculated from inhibition curves using as controls the secretion in LPS stimulated wells and the secretion in cells incubated with 10 microM of a PDE4 inhibitor reference compound.

Sequence of human PDE4D catalytic domain (Q08499 380-740): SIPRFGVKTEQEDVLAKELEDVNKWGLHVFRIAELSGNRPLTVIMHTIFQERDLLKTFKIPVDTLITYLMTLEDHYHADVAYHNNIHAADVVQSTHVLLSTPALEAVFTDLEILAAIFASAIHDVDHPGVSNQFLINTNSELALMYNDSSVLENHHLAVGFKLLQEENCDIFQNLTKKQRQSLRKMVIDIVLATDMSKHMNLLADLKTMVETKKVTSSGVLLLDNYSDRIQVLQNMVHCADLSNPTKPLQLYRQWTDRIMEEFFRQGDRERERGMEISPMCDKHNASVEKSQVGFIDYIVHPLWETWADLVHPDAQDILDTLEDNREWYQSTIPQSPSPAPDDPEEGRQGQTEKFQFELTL

SMILES	IC50 [1] [nM]	IC50 [2] [nM]
Cc1ncc(C(=O)OC2CN(c3nc4c(c(N(C)C5CCOCC5)n3)[S+]([O-])CC4)C2)o1 (stereo not drawn) [Example 21, [1-[4-[methyl(tetra-hydropyran-4-yl)amino]-5-oxido-6,7-dihydro-thieno[3,2-d]pyrimidin-5-ium-2-yl]azetidin-3-yl] 2-methyloxazole-5-carboxylate]	< 100	< 100
CCc1nc(C(=O)OC2CN(c3nc4c(c(N(C)C5CCOCC5)n3)[S+]([O-])CC4)C2)co1 (stereo not drawn) [Example 33, [1-[4-[methyl(tetra-hydropyran-4-yl)amino]-5-oxido-6,7-dihydro-thieno[3,2-d]pyrimidin-5-ium-2-yl]azetidin-3-yl] 2-ethyloxazole-4-carboxylate]	< 100	< 100
CN(c1nc(N2CC(OC(=O)C3CC(O)C3)C2)nc2c1[S+]([O-])CC2)C1CCOCC1 (stereo not drawn) [Example 14, [1-[4-[methyl(tetra-hydropyran-4-yl)amino]-5-oxido-6,7-dihydro-thieno[3,2-d]pyrimidin-5-ium-2-yl]azetidin-3-yl] 3-hydroxycyclobutane-carboxylate]	100 to 500	100 to 500
CCS(=O)(=O)c1ccc(C(=O)OC2CN(c3nc4c(c(N(C)C5CCOCC5)n3)[S+]([O-])CC4)C2)cc1 (stereo not drawn) [Example 57, [1-[4-[methyl(tetra-hydropyran-4-yl)amino]-5-oxido-6,7-dihydro-thieno[3,2-d]pyrimidin-5-ium-2-yl]azetidin-3-yl] 4-ethylsulfonylbenzoate]	< 100	< 100
Cc1cc(C(=O)OC2CN(c3nc4c(c(N(C)C5CCOCC5)n3)[S+]([O-])CC4)C2)nn1C (stereo not drawn) [Example 31, [1-[4-[methyl(tetra-hydropyran-4-yl)amino]-5-oxido-6,7-dihydro-thieno[3,2-d]pyrimidin-5-ium-2-yl]azetidin-3-yl] l,5-dimethylpyrazole-3-carboxylate]	< 100	< 100
CC(=O)N1CCC(C(=O)OC2CN(c3nc4c(c(N(C)C5CCOCC5)n3)[S+](O)CC4)C2)CC1 (stereo not drawn) [Example 49, [1-[4-[methyl(tetra-hydropyran-4-yl)amino]-5-oxido-6,7-dihydro-thieno[3,2-d]pyrimidin-5-ium-2-yl]azetidin-3-yl] 1-acetylpiperidine-4-carboxylate]	< 100	< 100
CC(C)S(=O)(=O)c1cccc(C(=O)OC2CN(c3nc4c(c(N(C)C5CCOCC5)n3)[S+](O)CC4)C2)c1 (stereo not drawn) [Example 59, [1-[4-[methyl(tetra-hydropyran-4-yl)amino]-5-oxido-6,7-dihydro-thieno[3,2-d]pyrimidin-5-ium-2-yl]azetidin-3-yl] 3-isopropylsulfonyl-benzoate]	< 100	< 100
CN(c1nc(N2CC(OC(=O)[C@H]3CC[C@H](O)CC3)C2)nc2c1[S+](O)CC2)C1CCOCC1 (stereo partly drawn) [Example 39, [1-[4-[methyl(tetra-hydropyran-4-yl)amino]-5-oxido-6,7-dihydro-thieno[3,2-d]pyrimidin-5-ium-2-yl]azetidin-3-yl] 4-hydroxycyclohexane-carboxylate]	< 100	< 100
CN(c1nc(N2CC(OC(=O)[C@H]3CC[C@@H](O)CC3)C2)nc2c1[S+](O)CC2)C1CCOCC1 (stereo partly drawn) [Example 37, [1-[4-[methyl(tetra-hydropyran-4-yl)amino]-5-oxido-6,7-dihydro-thieno[3,2-d]pyrimidin-5-ium-2-yl]azetidin-3-yl] 4-hydroxycyclohexane-carboxylate]	< 100	< 100
CN(c1nc(N2CC(OC(=O)c3ccccc3)C2)nc2c1[S+]([O-])CC2)C1CCOCC1 (stereo not drawn) [Example 16, [1-[4-[methyl(tetra-hydropyran-4-yl)amino]-5-oxido-6,7-dihydro-thieno[3,2-d]pyrimidin-5-ium-2-yl]azetidin-3-yl] benzoate]	< 100	< 100
CN(c1nc(N2CC(OC(=O)c3cn(C)cn3)C2)nc2c1[S+]([O-])CC2)C1CCOCC1 (stereo not drawn) [Example 19, [1-[4-[methyl(tetra-hydropyran-4-yl)amino]-5-oxido-6,7-dihydro-thieno[3,2-d]pyrimidin-5-ium-2-yl]azetidin-3-yl] 1-methylimidazole-4-carboxylate]	< 100	< 100
CN(c1nc(N2CC(OC(=O)c3cnsc3)C2)nc2c1[S+]([O-])CC2)C1CCOCC1 (stereo in doubt) [Example 4, [1-[(5R)-4-[Methyl(tetrahydropyran-4-yl)amino]-5-oxido-6,7-dihydrothieno[3,2-d]pyrimidin-5-ium-2-yl]azetidin-3-yl] isothiazole-4-carboxylate]	< 100	< 100
Cc1ncc(C(=O)OC2CN(c3nc4c(c(N(C)C5CCOCC5)n3)[S+]([O-])CC4)C2)s1 (stereo not drawn) [Example 36, [1-[4-[methyl(tetra-hydropyran-4-yl)amino]-5-oxido-6,7-dihydro-thieno[3,2-d]pyrimidin-5-ium-2-yl]azetidin-3-yl] 2-methylthiazole-5-carboxylate]	< 100	< 100
Cc1ccc(C(=O)OC2CN(c3nc4c(c(N(C)C5CCOCC5)n3)[S@+](O)CC4)C2)cc1 [Example 64, [1-[(5R)-4-[methyl-(tetrahydropyran-4-yl)amino]-5-oxido-6,7-dihydrothieno[3,2-d]pyrimidin-5-ium-2-yl]azetidin-3-yl] 4-methylbenzoate]	< 100	< 100
CN(c1nc(N2CC(OC(=O)CCS(C)(=O)=O)C2)nc2c1[S+]([O-])CC2)C1CCOCC1 (stereo not drawn) [Example 44]	100 to 500	100 to 500
O=C(OC1CN(c2nc3c(c(NC4CCOCC4)n2)[S@@+]([O-])CC3)C1)c1cnsc1 [Example 1, [1-[(5R)-5-Oxido-4-(tetrahydropyran-4-ylamino)-6,7-dihydrothieno[3,2-d]pyrimidin-5-ium-2-yl]azetidin-3-yl] isothiazole-4-carboxylate]	< 100	< 100
CN(c1nc(N2CC(OC(=O)c3ccc(C(=O)N4CCOCC4)cc3)C2)nc2c1[S+](O)CC2)C1CCOCC1 (stereo not drawn) [Example 61, [1-[4-[methyl(tetra-hydropyran-4-yl)amino]-5-oxido-6,7-dihydro-thieno[3,2-d]pyrimidin-5-ium-2-yl]azetidin-3-yl] 4-(morpholine-4-carbonyl)benzoate]	< 100	< 100
CCc1nc(C(=O)OC2CN(c3nc4c(c(N(C)C5CCOCC5)n3)[S+](O)CC4)C2)cs1 (stereo not drawn) [Example 46, [1-[4-[methyl(tetra-hydropyran-4-yl)amino]-5-oxido-6,7-dihydro-thieno[3,2-d]pyrimidin-5-ium-2-yl]azetidin-3-yl] 2-ethylthiazole-4-carboxylate]	< 100	< 100
CC(=O)N1CC[C@H](Nc2nc(N3CC(OC(=O)C4CCOCC4)C3)nc3c2[S@+](O)CC3)C1 [Example 74, [1-[4-[[(3S)-1-acetyl-pyrrolidin-3-yl]amino]-5-oxido-6,7-dihydro-thieno[3,2-d]pyrimidin-5-ium-2-yl]azetidin-3-yl]tetrahydropyran-4-carboxylate]	< 100	100 to 500
CN(c1nc(N2CC(OC(=O)C3CCOCC3)C2)nc2c1[S+]([O-])CC2)C1CCOCC1 (stereo not drawn) [Example 23, [1-[4-[methyl(tetra-hydropyran-4-yl)amino]-5-oxido-6,7-dihydro-thieno[3,2-d]pyrimidin-5-ium-2-yl]azetidin-3-yl] tetrahydropyran-4-carboxylate]	< 100	< 100
O=C(OC1CN(c2nc3c(c(NC4CCOCC4)n2)[S@@+]([O-])CC3)C1)C1CCCC1 [Example 11, [1-[(5R)-5-oxido-4-(tetrahydropyran-4-ylamino)-6,7-dihydro-thieno[3,2-d]pyrimidin-5-ium-2-yl]azetidin-3-yl] cyclopentanecarboxylate]	< 100	< 100
O=C(OC1CN(c2nc3c(c(NC4CC5(COC5)C4)n2)[S@@+]([O-])CC3)C1)c1cscn1 (single isomer, unassigned) [Example 70]	< 100	< 100
CN(c1nc(N2CC(OC(=O)c3ccn(C)n3)C2)nc2c1[S+]([O-])CC2)C1CCOCC1 (stereo not drawn) [Example 17, [1-[4-[methyl(tetra-hydropyran-4-yl)amino]-5-oxido-6,7-dihydro-thieno[3,2-d]pyrimidin-5-ium-2-yl]azetidin-3-yl] 1-methylpyrazole-3-carboxylate]	< 100	< 100
Cc1cc(C(=O)OC2CN(c3nc4c(c(N(C)C5CCOCC5)n3)[S+]([O-])CC4)C2)sn1 (stereo not drawn) [Example 34, [1-[4-[methyl(tetra-hydropyran-4-yl)amino]-5-oxido-6,7-dihydro-thieno[3,2-d]pyrimidin-5-ium-2-yl]azetidin-3-yl] 3-methylisothiazole-5-carboxylate]	< 100	< 100
